Biological target: FAK (411-686, activated by Src and repurified) (Homo sapiens, UniProt Q05397)
Experiment: FAK Biochemical Assay (cell-free, HTRF)
Settings: 10 μM ATP, read-out: 50% inhibitory concentrations (IC50) against focal adhesion kinase in the cell-free assay
Experimental: All experiments were performed in Greiner FIA black 384-well low volume plates.
A 5 μl mixture of a 200 nM Ulight-poly GT substrate (Perkin Elmer) and 10 μM ATP in Kinase buffer (50 mM Hepes pH 7.3, 10 mM MgCl2, 1 mM EGTA, 0.01% Tween-20, 2 mM dithriothreitol) was dispensed into the wells. […] of 90% DMSO/10% water containing the compounds to be tested was added to the wells. Kinase reaction was started by addition of 5 μl of 1 nM FAK (411-686, activated by Src and repurified) in Kinase buffer. After 50 min at RT the reaction was stopped with 5 μl of 40 mM EDTA in detection buffer (Perkin Elmer, Lance detection buffer) followed by a 5 μl addition of 8 nM LANCE Ei-W1024 anti-phosphotyrosine (PY20) antibody in detection buffer. After 1 h incubation at RT the plate was read on the Viewlux in HTRF mode.

FAK (411-686, activated by Src and repurified), sequence (Q05397 411-686, species assumed): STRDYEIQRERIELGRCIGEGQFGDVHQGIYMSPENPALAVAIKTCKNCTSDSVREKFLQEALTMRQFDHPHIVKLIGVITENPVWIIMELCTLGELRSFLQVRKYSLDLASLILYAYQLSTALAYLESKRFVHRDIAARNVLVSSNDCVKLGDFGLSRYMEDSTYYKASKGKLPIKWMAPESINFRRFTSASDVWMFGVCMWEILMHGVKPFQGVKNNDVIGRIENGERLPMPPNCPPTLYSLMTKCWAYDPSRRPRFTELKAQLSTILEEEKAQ

SMILES | IC50
CNS(=O)(=O)c1ccccc1Nc1cc(Nc2ccccc2S(=O)(=O)NC)c(C(F)(F)F)cn1 [Compound 5] | > 10 µM
CN1Cc2cccc(Nc3cc(Nc4cccc5c4C(=O)N(C)C5)c(C(F)(F)F)cn3)c2C1=O [Compound 3, 7,7′-(5-(trifluoromethyl)pyridine-2,4-diyl)bis(azanediyl)bis(2-methylisoindolin-1-one)] | > 10 µM
